Data: PMC6199744, “Development of Chemical Proteomics for the Folateome and Analysis of the Kinetoplastid Folateome” (ACS Infectious Diseases, 2018)
Where two headings read alike, the source gives them in different places.

What was measured:
Type in all cases: binding
[1] = molecular target: T1, HeLa cell extract proteins (Homo sapiens, UniProt Q96DG6)
T1 construct: endogenous in cells; host or cells: HeLa cell extract
T1 sequence (Q96DG6 1-245): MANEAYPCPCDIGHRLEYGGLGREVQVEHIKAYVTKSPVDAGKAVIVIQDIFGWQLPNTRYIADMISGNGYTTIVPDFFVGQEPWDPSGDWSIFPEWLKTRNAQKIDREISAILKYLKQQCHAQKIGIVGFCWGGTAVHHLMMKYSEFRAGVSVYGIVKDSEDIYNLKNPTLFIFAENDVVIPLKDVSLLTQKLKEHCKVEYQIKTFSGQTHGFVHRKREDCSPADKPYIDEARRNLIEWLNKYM

[2] = molecular target: T2, HeLa cell extract proteins (Homo sapiens, UniProt Q92621)
T2 construct: endogenous in cells; host or cells: HeLa cell extract
T2 sequence (Q92621 whole entry): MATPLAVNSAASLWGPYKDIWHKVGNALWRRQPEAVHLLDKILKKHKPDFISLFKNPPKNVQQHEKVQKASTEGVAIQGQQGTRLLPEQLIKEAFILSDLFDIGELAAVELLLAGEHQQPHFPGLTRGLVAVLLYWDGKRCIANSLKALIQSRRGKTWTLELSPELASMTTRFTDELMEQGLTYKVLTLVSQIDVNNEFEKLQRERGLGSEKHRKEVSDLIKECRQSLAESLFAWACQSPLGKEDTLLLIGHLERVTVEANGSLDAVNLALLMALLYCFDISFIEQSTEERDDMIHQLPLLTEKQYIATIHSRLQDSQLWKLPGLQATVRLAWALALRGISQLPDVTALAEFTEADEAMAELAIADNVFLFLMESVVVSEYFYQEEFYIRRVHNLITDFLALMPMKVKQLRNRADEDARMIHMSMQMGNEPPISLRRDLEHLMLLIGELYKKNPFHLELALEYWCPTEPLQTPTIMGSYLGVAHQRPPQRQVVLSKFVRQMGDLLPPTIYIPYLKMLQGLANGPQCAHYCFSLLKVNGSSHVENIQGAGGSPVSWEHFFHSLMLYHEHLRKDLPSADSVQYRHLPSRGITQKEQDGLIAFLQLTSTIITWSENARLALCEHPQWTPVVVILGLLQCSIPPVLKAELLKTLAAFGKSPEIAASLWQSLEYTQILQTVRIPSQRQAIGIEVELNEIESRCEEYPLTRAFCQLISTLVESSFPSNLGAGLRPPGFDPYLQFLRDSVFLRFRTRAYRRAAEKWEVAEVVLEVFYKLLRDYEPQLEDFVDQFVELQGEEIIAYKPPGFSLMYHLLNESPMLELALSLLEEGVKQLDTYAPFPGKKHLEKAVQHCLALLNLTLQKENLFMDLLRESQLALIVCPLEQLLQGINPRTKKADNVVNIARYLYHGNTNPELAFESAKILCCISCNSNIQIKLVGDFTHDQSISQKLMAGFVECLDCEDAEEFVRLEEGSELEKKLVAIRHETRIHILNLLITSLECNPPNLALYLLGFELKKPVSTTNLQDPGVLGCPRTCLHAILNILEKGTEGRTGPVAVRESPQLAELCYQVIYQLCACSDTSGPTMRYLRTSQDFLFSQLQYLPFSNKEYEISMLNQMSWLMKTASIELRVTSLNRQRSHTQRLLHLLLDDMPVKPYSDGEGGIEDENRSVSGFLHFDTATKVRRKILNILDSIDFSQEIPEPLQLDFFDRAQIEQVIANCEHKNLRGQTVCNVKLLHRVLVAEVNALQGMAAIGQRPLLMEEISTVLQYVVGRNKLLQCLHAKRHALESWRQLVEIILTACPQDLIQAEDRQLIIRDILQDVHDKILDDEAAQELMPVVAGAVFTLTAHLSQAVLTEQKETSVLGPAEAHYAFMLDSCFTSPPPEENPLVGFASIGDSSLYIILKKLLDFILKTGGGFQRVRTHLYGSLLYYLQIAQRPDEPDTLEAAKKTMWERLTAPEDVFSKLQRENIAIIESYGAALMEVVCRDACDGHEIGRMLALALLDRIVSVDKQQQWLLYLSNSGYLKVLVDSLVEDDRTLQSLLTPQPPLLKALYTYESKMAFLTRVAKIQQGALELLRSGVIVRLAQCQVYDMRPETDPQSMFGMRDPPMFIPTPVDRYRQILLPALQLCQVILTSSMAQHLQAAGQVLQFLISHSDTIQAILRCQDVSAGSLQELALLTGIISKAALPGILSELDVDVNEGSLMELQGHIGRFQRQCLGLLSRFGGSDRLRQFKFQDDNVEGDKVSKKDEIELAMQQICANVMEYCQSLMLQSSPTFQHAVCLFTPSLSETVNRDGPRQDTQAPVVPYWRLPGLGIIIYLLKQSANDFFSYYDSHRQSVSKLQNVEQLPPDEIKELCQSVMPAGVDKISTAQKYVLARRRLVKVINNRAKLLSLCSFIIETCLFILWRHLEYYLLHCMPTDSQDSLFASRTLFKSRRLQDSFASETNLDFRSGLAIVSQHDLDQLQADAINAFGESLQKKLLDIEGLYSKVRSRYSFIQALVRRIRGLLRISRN

[3] = molecular target: T3, HeLa cell extract proteins (Homo sapiens, UniProt P56589)
T3 construct: endogenous in cells; host or cells: HeLa cell extract
T3 sequence (P56589 1-373): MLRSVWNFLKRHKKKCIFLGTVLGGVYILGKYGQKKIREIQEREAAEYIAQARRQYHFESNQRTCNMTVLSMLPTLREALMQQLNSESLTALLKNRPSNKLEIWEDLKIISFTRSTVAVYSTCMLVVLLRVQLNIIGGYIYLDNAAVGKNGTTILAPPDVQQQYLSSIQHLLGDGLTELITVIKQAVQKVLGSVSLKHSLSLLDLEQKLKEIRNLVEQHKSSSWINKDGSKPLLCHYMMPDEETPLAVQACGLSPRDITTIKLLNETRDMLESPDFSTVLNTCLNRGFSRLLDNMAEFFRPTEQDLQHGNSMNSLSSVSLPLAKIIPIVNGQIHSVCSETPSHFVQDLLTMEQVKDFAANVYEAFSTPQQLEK

[4] = molecular target: T4, HeLa cell extract proteins (Homo sapiens, UniProt P60981)
T4 construct: endogenous in cells; host or cells: HeLa cell extract
T4 sequence (P60981 1-165): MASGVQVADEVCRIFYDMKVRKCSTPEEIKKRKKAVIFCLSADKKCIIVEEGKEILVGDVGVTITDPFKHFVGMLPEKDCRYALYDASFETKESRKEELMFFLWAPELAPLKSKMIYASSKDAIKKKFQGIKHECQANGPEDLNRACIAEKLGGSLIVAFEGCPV

[5] = molecular target: T5, HeLa cell extract proteins (Homo sapiens, UniProt P50416)
T5 construct: endogenous in cells; host or cells: HeLa cell extract
T5 sequence (P50416 1-773): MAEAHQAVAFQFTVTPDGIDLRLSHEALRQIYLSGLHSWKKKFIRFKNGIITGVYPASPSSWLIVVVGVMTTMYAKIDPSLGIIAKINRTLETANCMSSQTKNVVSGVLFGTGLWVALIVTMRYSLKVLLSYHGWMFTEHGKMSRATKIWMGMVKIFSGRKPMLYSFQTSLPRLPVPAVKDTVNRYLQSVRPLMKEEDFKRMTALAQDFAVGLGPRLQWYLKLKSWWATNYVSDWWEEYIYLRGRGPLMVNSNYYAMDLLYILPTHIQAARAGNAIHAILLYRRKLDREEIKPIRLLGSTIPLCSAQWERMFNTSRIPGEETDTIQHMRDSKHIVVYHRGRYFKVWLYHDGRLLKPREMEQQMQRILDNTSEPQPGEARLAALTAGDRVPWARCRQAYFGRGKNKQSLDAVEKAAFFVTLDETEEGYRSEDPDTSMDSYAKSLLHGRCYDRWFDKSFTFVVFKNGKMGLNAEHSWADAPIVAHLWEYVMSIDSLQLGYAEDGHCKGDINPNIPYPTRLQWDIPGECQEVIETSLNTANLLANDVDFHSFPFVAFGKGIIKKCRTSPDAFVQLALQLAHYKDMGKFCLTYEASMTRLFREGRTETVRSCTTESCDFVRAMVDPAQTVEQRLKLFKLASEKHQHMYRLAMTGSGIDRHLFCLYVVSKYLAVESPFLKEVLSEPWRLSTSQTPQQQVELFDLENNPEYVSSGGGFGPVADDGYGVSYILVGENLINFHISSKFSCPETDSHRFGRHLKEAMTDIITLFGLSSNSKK

[6] = molecular target: T6, HeLa cell extract proteins (Homo sapiens, UniProt P50454)
T6 construct: endogenous in cells; host or cells: HeLa cell extract
T6 sequence (P50454 19-418): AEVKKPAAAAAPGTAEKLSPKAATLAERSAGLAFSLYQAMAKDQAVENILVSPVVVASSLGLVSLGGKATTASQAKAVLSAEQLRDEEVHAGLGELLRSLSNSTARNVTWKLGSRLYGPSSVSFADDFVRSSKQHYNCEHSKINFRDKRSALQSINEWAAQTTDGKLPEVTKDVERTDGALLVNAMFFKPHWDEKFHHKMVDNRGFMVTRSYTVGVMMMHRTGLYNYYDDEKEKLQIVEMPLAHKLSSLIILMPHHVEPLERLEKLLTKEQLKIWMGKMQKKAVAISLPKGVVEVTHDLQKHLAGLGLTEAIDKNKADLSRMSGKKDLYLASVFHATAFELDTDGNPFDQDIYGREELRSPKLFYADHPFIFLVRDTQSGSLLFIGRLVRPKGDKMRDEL

[7] = molecular target: T7, HeLa cell extract proteins (Homo sapiens, UniProt Q9Y244)
T7 construct: endogenous in cells; host or cells: HeLa cell extract
T7 sequence (Q9Y244 1-141): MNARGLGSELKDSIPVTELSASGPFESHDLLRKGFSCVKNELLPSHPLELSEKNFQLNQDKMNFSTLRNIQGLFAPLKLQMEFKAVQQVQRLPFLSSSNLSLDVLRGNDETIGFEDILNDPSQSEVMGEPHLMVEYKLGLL

[8] = molecular target: T8, HeLa cell extract proteins (Homo sapiens, UniProt Q9HBU6)
T8 construct: endogenous in cells; host or cells: HeLa cell extract
T8 sequence (Q9HBU6 1-452): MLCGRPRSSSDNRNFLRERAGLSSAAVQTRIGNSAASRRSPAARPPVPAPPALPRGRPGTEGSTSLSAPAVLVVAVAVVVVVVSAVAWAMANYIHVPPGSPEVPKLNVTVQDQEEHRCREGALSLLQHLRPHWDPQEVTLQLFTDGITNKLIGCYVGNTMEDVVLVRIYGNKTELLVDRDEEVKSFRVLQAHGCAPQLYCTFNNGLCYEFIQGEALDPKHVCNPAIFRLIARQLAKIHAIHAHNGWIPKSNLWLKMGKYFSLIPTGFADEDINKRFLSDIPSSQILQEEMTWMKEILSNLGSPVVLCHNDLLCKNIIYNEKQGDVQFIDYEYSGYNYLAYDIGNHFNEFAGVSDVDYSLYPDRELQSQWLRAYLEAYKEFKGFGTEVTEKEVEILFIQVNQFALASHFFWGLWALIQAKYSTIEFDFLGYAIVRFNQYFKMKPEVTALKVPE

SMILES	fold changes relative to vehicle control ([1]; protein CMBL, HeLa)	fold changes relative to vehicle control ([2]; captured protein NUP205, HeLa)	fold changes relative to vehicle control ([3]; HeLa, protein PEX3)	fold changes relative to vehicle control ([4]; HeLa, protein DSTN (DESTRIN.)) [fold]	fold changes relative to vehicle control ([5]; captured protein CPT1A, HeLa)	fold changes relative to vehicle control ([6]; protein SERPINH1, HeLa)	fold changes relative to vehicle control ([7]; captured protein POMP, HeLa)	fold changes relative to vehicle control ([8]; HeLa, protein ETNK1)	fold changes relative to vehicle control ([1]; HeLa, protein CMBL)	fold changes relative to vehicle control ([2]; HeLa, captured protein NUP205)	fold changes relative to vehicle control ([3]; HeLa, captured protein PEX3)	fold changes relative to vehicle control ([4]; HeLa, protein DSTN)	fold changes relative to vehicle control ([5]; HeLa, protein CPT1A)	fold changes relative to vehicle control ([6]; HeLa, protein SERPINH1)	fold changes relative to vehicle control ([7]; protein POMP, HeLa)	fold changes relative to vehicle control ([8]; protein ETNK1, HeLa)	further results
Nc1nc2cccc(-c3ccccc3)c2n1Cc1ccc(Cl)c(Cl)c1 [compound 3]	1.17	1.18	0.92	1.09	0.95	0.93	0.86	1.53	–	–	–	–	–	–	–	–	–
Nc1nc2[nH]cc(CCc3ccc(C(=O)N[C@@H](CCC(=O)O)C(=O)O)cc3)c2c(=O)[nH]1 [PTX, pemetrexed]	–	–	–	–	–	–	–	–	–	–	–	–	–	–	–	–	fold changes relative to vehicle control [1]: 0.97; fold changes relative to vehicle control [2]: 1.09; fold changes relative to vehicle control [3]: 0.95; fold changes relative to vehicle control [4]: 1.05; fold changes relative to vehicle control [5]: 0.84; fold changes relative to vehicle control [6]: 1.08; fold changes relative to vehicle control [7]: 0.83; fold changes relative to vehicle control [8]: 0.91
Nc1nc2c(c(=O)[nH]1)N(C=O)C(CNc1ccc(C(=O)N[C@@H](CCC(=O)O)C(=O)O)cc1)CN2 (some centres unmarked) [LEU, leucovorin]	–	–	–	–	–	–	–	–	1.04	1.03	1.02	0.96	0.88	0.99	0.72	0.99	–
CCCCCCOc1cccc(Cc2cnc(N)nc2N)c1 [compound 2]	1.38	1.1	0.93	2.07	1.04	1.61	0.89	0.99	–	–	–	–	–	–	–	–	–
NCCOCCOCC(=O)Nc1nc2ncc(CNc3ccc(C(=O)NC(CCC(=O)O)C(=O)O)cc3)nc2c(=O)[nH]1 (centres unmarked) [compound 6]	–	–	–	–	–	–	–	–	1.03	1.16	1	1.16	1.01	1.21	0.86	0.96	–
CCCCCCOc1ccc(Cc2cnc(N)nc2N)cc1 [compound 1]	1.08	1.03	0.94	1.28	0.9	1.07	0.66	0.94	–	–	–	–	–	–	–	–	–
NCCCNc1ccc(C(=O)NC(CCC(=O)O)C(=O)O)cc1 (centres unmarked) [compound 7]	–	–	–	–	–	–	–	–	1.25	1.16	0.97	0.91	0.99	0.98	0.85	1.01	–
